“And” between values parts separate entries of the source, which are not always exact repeats. Equal values may be shown once.
Settings: Liquid, Vibrating tube method

CCCCCCC(=O)OCC(COC(=O)CCCCCC)(COC(=O)CCCCCC)COC(=O)CCCCCC [pentaerythritol tetraheptanoate]
Settings | mass density
303.15 K, 31425 kPa | 989 kg/m3
303.15 K, 31458 kPa | 989.1 kg/m3
303.15 K, 31487 kPa | 989.1 kg/m3
303.15 K, 31515 kPa | 989 kg/m3
303.15 K, 31543 kPa | 989.1 kg/m3
303.15 K, 31577 kPa | 989.1 kg/m3
303.15 K, 31605 kPa | 989 kg/m3
303.15 K, 31639 kPa | 989.1 kg/m3
303.15 K, 31667 kPa | 989.1 kg/m3
303.15 K, 31696 kPa | 989.1 kg/m3
303.15 K, 31724 kPa | 989.2 kg/m3
303.15 K, 31759 kPa | 989.2 kg/m3
303.15 K, 31788 kPa | 989.2 kg/m3
303.15 K, 31817 kPa | 989.3 kg/m3
303.15 K, 31846 kPa | 989.3 kg/m3
303.15 K, 31880 kPa | 989.3 kg/m3
303.15 K, 31909 kPa | 989.3 kg/m3
303.15 K, 31938 kPa | 989.3 kg/m3
303.15 K, 31973 kPa | 989.4 kg/m3
303.15 K, 32002 kPa | 989.3 kg/m3
303.15 K, 32036 kPa | 989.4 kg/m3
303.15 K, 32065 kPa | 989.4 kg/m3
303.15 K, 32094 kPa | 989.3 kg/m3
303.15 K, 32128 kPa | 989.5 kg/m3
303.15 K, 32158 kPa | 989.4 kg/m3
303.15 K, 32186 kPa | 989.4 kg/m3
303.15 K, 32221 kPa | 989.4 kg/m3
303.15 K, 32250 kPa | 989.5 kg/m3
303.15 K, 32280 kPa | 989.5 kg/m3
303.15 K, 32316 kPa | 989.5 kg/m3
303.15 K, 32345 kPa | 989.5 kg/m3
303.15 K, 32375 kPa | 989.4 kg/m3
303.15 K, 32405 kPa | 989.5 kg/m3
303.15 K, 32440 kPa | 989.6 kg/m3
303.15 K, 32470 kPa | 989.6 kg/m3
303.15 K, 32500 kPa | 989.5 kg/m3
303.15 K, 32536 kPa | 989.7 kg/m3
303.15 K, 32566 kPa | 989.6 kg/m3
303.15 K, 32602 kPa | 989.7 kg/m3
303.15 K, 32632 kPa | 989.6 kg/m3
303.15 K, 32661 kPa | 989.6 kg/m3
303.15 K, 32691 kPa | 989.7 kg/m3
303.15 K, 32727 kPa | 989.7 kg/m3
303.15 K, 32757 kPa | 989.6 kg/m3
303.15 K, 32787 kPa | 989.8 kg/m3
303.15 K, 32824 kPa | 989.8 kg/m3
303.15 K, 32854 kPa | 989.8 kg/m3
303.15 K, 32890 kPa | 989.8 kg/m3
303.15 K, 32920 kPa | 989.7 kg/m3
303.15 K, 32951 kPa | 989.7 kg/m3
303.15 K, 32984 kPa | 989.9 kg/m3
303.15 K, 33014 kPa | 989.7 kg/m3
303.15 K, 33051 kPa | 989.9 kg/m3
303.15 K, 33082 kPa | 990 kg/m3
303.15 K, 33112 kPa | 989.9 kg/m3
303.15 K, 33149 kPa | 990 kg/m3
303.15 K, 33180 kPa | 990 kg/m3
303.15 K, 33217 kPa | 990 kg/m3
303.15 K, 33248 kPa | 989.9 kg/m3
303.15 K, 33279 kPa | 990.1 kg/m3
303.15 K, 33317 kPa | 990 kg/m3
303.15 K, 33348 kPa | 990 kg/m3
303.15 K, 33381 kPa | 990 kg/m3
303.15 K, 33413 kPa | 990 kg/m3
303.15 K, 33450 kPa | 990.1 kg/m3
303.15 K, 33482 kPa | 990 kg/m3
303.15 K, 33514 kPa | 990.2 kg/m3
303.15 K, 33546 kPa | 990.1 kg/m3
303.15 K, 33584 kPa | 990.1 kg/m3
303.15 K, 33616 kPa | 990.2 kg/m3
303.15 K, 33648 kPa | 990.2 kg/m3
303.15 K, 33686 kPa | 990.2 kg/m3
303.15 K, 33718 kPa | 990.2 kg/m3
303.15 K, 33756 kPa | 990.2 kg/m3
303.15 K, 33788 kPa | 990.2 kg/m3
303.15 K, 33820 kPa | 990.3 kg/m3
303.15 K, 33852 kPa | 990.3 kg/m3
303.15 K, 33890 kPa | 990.4 kg/m3
303.15 K, 33921 kPa | 990.4 kg/m3
303.15 K, 33952 kPa | 990.5 kg/m3
303.15 K, 33993 kPa | 990.4 kg/m3
303.15 K, 34038 kPa | 990.4 kg/m3
303.15 K, 34093 kPa | 990.4 kg/m3
303.15 K, 34123 kPa | 990.4 kg/m3
303.15 K, 34208 kPa | 990.5 kg/m3
303.15 K, 34249 kPa | 990.5 kg/m3
303.15 K, 34280 kPa | 990.6 kg/m3
303.15 K, 34305 kPa | 990.5 kg/m3
303.15 K, 34336 kPa | 990.6 kg/m3
303.15 K, 34363 kPa | 990.5 kg/m3
303.15 K, 34390 kPa | 990.7 kg/m3
303.15 K, 34423 kPa | 990.6 kg/m3
303.15 K, 34452 kPa | 990.7 kg/m3
303.15 K, 34482 kPa | 990.6 kg/m3
303.15 K, 34512 kPa | 990.7 kg/m3
303.15 K, 34545 kPa | 990.6 kg/m3
303.15 K, 34553 kPa | 990.8 kg/m3
303.15 K, 34554 kPa | 990.7 kg/m3
303.15 K, 34556 kPa | 990.7 kg/m3
323.14 K, 99.4 kPa | 955.6 kg/m3 and 955.7 kg/m3
323.14 K, 99.5 kPa | 955.7 kg/m3 and 955.6 kg/m3
323.14 K, 99.7 kPa | 955.7 kg/m3 [middle of 4 runs]
323.14 K, 99.9 kPa | 955.7 kg/m3 [middle of 4 runs]
323.14 K, 100 kPa | 955.7 kg/m3 and 955.8 kg/m3 and 955.6 kg/m3
323.14 K, 100.1 kPa | 955.7 kg/m3
323.14 K, 100.2 kPa | 955.6 kg/m3 and 955.7 kg/m3
323.14 K, 100.4 kPa | 955.7 kg/m3
323.14 K, 101.1 kPa | 955.6 kg/m3
323.14 K, 135.4 kPa | 955.7 kg/m3
323.14 K, 135.5 kPa | 955.7 kg/m3
323.14 K, 137.4 kPa | 955.7 kg/m3
